# Laboratory results: patent US7709533B2, “Imines as ion channel modulators” (Icagen, Inc., priority 2005, dated 2010)
# Molecular target: T1, human intermediate-conductance, calcium-activated K+ channels (h-IK1) (Homo sapiens, UniProt O15554)
# T1 construct: expressed in transfected cells; host or cells: CHO-K1 (ATCC CCL-61), kept under G-418 selection
# Assay: Rubidium efflux assay (86Rb+ efflux, CHO-K1 cells expressing h-IK1)
# Format: cell-based
# Settings: hIK1 in CHO-K1 cells; 86Rb+ efflux stimulated with ionomycin; drug 0.01-30 μM, 6 min preincubation, 10 min efflux; read-out: IK1 Inhibitory Activity
# Protocol: CHO-K1 cells (American Type Culture Collection, CCL-61) expressing human intermediate-conductance, calcium-activated K^+ channels (h-IK1) are cultured in Ham's F-12 medium (HyClone) supplemented with 10% heat inactivated fetal bovine serum (Nova-Tech) and 400 μg/mL G-418 (Geneticin, Life Technologies), in an incubator at 37° C. with a humidified atmosphere of 5% CO2. Cells are typically sub-cultured twice per week. When the culture flask reaches 70%-90% confluency, the culture medium is removed, cells are rinsed twice with calcium and magnesium-free Dulbecco's phospate buffed saline (PBS) and a 0.05% trypsin/0.5 mM EDTA in HBSS solution is added until cells begin to round up (typically 2-5 min). Twenty four hours prior to the experiment, cells are removed from the culture flask and resuspended in Ham's F-12 medium supplemented with 10% heat inactivated fetal bovine serum, 50 μg/mL streptomycin, 50 U/mL penicillin, 10 mM HEPES, pH 7.2, and plated on 96 well, cell culture treated, flat bottomed trays (TPP 96, 4×10^6 cells per 96 well plate; 100 μL/well). Cells are loaded with ^86Rb^+ by incubating the cells overnight in culture medium containing 1 μCi/ml ^86RbCl (Perkin-Elmer) using a Labsystems Multidrop. On the day of the experiment, Culture media is removed and the cells are washed 4 times with 100 μL per well of zero Ca^2+ Earl's Balanced Salt Solution (EBSS)[composition (mM): NaCl (138), KCl (5.4), MgCl2 (1), glucose (10), HEPES (10), pH 7.4 with 10N NaOH]. Cells were preincubated with drug (0.01-30 μM) in low Ca^2+ EBSS, [composition (mM): NaCl (138), CaCl2 (0.25), KCl (5.4), MgCl2 (1), glucose (10), HEPES (10), pH 7.4 with 10N NaOH] for 6 min. ^86Rb^+ efflux is stimulated by exposing cells to regular EBSS [composition (mM): NaCl (138), CaCl2 (1.8), KCl (5.4), MgCl2 (1), glucose (10), HEPES (10), pH 7.4 with 10N NaOH] supplemented with […] ionomycin (Calbiochem), in the continued presence of drug. After a 10 min efflux period, the EBSS/ionomycin solution is removed from the cells and the ^86Rb^+ content determined by Cherenkov counting (Wallac 1450 Microbeta Trilux liquid scintillation and luminescence counter). Cells are then lysed with 100 μL 0.1% SDS solution per well, and the ^86Rb^+ content of the lysate determined. Percent ^86Rb^+ efflux is calculated according to the following formula: (^86Rb^+ content in EBSS/(^86Rb^+ content in EBSS+^86Rb^+ content of the lysate))×100.
row,IC50 [nM],SMILES
1,< 500,"N=C(NO)C(c1ccccc1)(c1ccccc1)c1ccccc1Cl [2-(2-Chloro-phenyl)-N-hydroxy-2,2-diphenyl-acetamidine]"
2,< 500,"N=C(NO)C(c1ccccc1)(c1ccc(F)cc1)c1ccccc1F (centres unmarked) [Example 1, 2-(2-Fluoro-phenyl)-2-(4-fluoro-phenyl)-N-hydroxy-2-phenyl-acetamidine]"
3,< 500,"N=C(NO)C(c1ccccc1)(c1ccc(F)cc1)c1ccc(F)cc1 [Example 2, 2,2-Bis-(4-fluoro-phenyl)-N-hydroxy-2-phenyl-acetamidine]"
4,< 500,"N=C(NO)C(c1ccc(F)cc1)(c1ccc(F)cc1)c1ccc(F)cc1 [Example 3, 2,2,2-Tris-(4-fluoro-phenyl)-N-hydroxy-acetamidine]"
5,< 500,"CCONC(=N)C(c1ccc(F)cc1)(c1ccc(F)cc1)c1ccc(F)cc1 [Example 4, N-Ethoxy-2,2,2-tris-(4-fluoro-phenyl)-acetamidine]"
6,< 500,"N=C(NO)C(c1ccc(F)cc1)(c1ccc(F)cc1)c1ccccc1Cl [Example 5, 2-(2-Chloro-phenyl)-2,2-bis-(4-fluoro-phenyl)-N-hydroxy-acetamidine]"
7,< 500,"ON=CC(c1ccccc1)(c1ccccc1)c1ccccc1Cl [Example 6, (2-Chloro-phenyl)-diphenyl-acetaldehyde oxime]"
8,< 500,"CON=CC(c1ccccc1)(c1ccccc1)c1ccccc1Cl [Example 7, (2-Chloro-phenyl)-diphenyl-acetaldehyde O-methyl-oxime]"
9,< 500,"CONC(=N)C(c1ccccc1)(c1ccc(F)cc1)c1ccc(F)cc1 [Example 8, 2,2-Bis-(4-fluoro-phenyl)-N-methoxy-2-phenyl-acetamidine]"
10,500 to 1000,"N=C(NN)C(c1ccccc1)(c1ccc(F)cc1)c1ccc(F)cc1 [Example 9, 2,2-Bis-(4-fluoro-phenyl)-N-amino-2-phenyl-acetamidine]"
11,500 to 1000,"N=C(NN)C(c1ccc(F)cc1)(c1ccc(F)cc1)c1ccc(F)cc1 [Example 10, 2,2,2-Tris-(4-fluoro-phenyl)-N-amino-acetamidine]"
12,500 to 1000,"N=C(NO)C(c1ccccc1)(c1ccccc1)c1ccccc1 [Example 11, N-Hydroxy-2,2,2-triphenyl-acetamidine]"
13,500 to 1000,"COc1ccc(C(C(=N)NO)(c2ccccc2)c2ccccc2)cc1 [Example 12, N-Hydroxy-2-(4-methoxy-phenyl)-2,2-diphenyl-acetamidine]"
14,500 to 1000,"N=C(NO)C(c1ccccc1)(c1ccccc1)c1cccc(F)n1 [Example 13, 2-(6-Fluoro-pyridin-2-yl)-N-hydroxy-2,2-diphenyl-acetamidine]"
15,1000 to 10000,"N=C(NO)C(c1cccc(F)c1)(c1cccc(F)n1)c1cccc(F)n1 [Example 14, 2-(3-Fluoro-phenyl)-2,2-bis-(6-fluoro-pyridin-2-yl)-N-hydroxy-acetamidine]"
16,1000 to 10000,"N=C(N)C(c1cccc(F)n1)(c1cccc(F)n1)c1cccc(F)n1 [Example 15, 2,2,2-Tris-(6-fluoro-pyridin-2-yl)-acetamidine]"
17,1000 to 10000,"Cc1nc(C(c2ccccc2)(c2ccccc2)c2cccc(F)n2)no1 [Example 16, 2-Fluoro-6-[(5-methyl-[1,2,4]oxadiazol-3-yl)-diphenyl-methyl]-pyridine]"
18,1000 to 10000,"Cc1ccc(C(C(=N)N)(c2cccc(F)c2)c2cccc(F)c2)cn1 [Example 17, 2,2-Bis-(3-fluoro-phenyl)-2-(6-methyl-pyridin-3-yl)-acetamidine]"

row,IC50 [nM],SMILES
1,1000 to 10000,"N=C(N)C(c1ccc(F)cc1)(c1ccc(F)cc1)c1ccc(F)cc1 [Example 18, 2,2,2-Tris-(4-fluoro-phenyl)-acetamidine]"
2,1000 to 10000,"CONC(=N)C(c1ccc(F)cc1)(c1ccc(F)cc1)c1ccc(F)cc1 [Example 19, 2,2,2-Tris-(4-fluoro-phenyl)-N-methoxy-acetamidine]"
3,1000 to 10000,"CC(C)ONC(=N)C(c1ccc(F)cc1)(c1ccc(F)cc1)c1ccc(F)cc1 [Example 20, 2,2,2-Tris-(4-fluoro-phenyl)-N-isopropoxy-acetamidine]"
4,1000 to 10000,"N=C(N)C(c1ccccc1)(c1ccc(F)cc1)c1ccc(F)cc1 [Example 21, 2,2-Bis-(4-fluoro-phenyl)-2-phenyl-acetamidine]"
5,1000 to 10000,"N=C(N)C(c1ccccc1)(c1ccccc1)c1ccccc1 [Example 22, 2,2,2-Triphenyl-acetamidine]"
6,1000 to 10000,"COc1ccc(C(C(=N)NO)(c2ccccc2)c2ccc(OC)cc2)cc1 [Example 23, N-Hydroxy-2,2-bis-(4-methoxy-phenyl)-2-phenyl-acetamidine]"
7,1000 to 10000,"N=C(NO)C(c1ccccc1)(c1ccccc1)c1ccc(O)cc1 [Example 24, N-Hydroxy-2-(4-hydroxy-phenyl)-2,2-diphenyl-acetamidine]"
8,1000 to 10000,"CC(=NN)C(c1ccccc1)(c1ccccc1)c1ccccc1 [Example 25, (1-Methyl-2,2,2-triphenyl-ethylidene)-hydrazine]"
9,1000 to 10000,"CON=C(C)C(c1ccccc1)(c1ccccc1)c1ccccc1 [Example 26, 1,1,1-Triphenyl-propan-2-one O-methyl-oxime]"
10,1000 to 10000,"COC(=N)C(c1ccc(F)cc1)(c1ccc(F)cc1)c1ccc(F)cc1 [Example 27, 2,2,2-Tris-(4-fluoro-phenyl)-acetimidic acid methyl ester]"
11,1000 to 10000,"COC(=N)C(c1ccccc1)(c1ccc(F)cc1)c1ccc(F)cc1 [Example 28, 2,2-Bis-(4-fluoro-phenyl)-2-phenyl-acetimidic acid methyl ester]"
12,1000 to 10000,"CN=C(OC)C(c1ccccc1)(c1ccc(F)cc1)c1ccc(F)cc1 [Example 29, 2,2-Bis-(4-fluoro-phenyl)-N-methyl-2-phenyl-acetimidic acid methyl ester]"
13,> 10000,"N=C(NO)C(c1cccc(F)n1)(c1cccc(F)n1)c1cccc(F)n1 [Example 30, 2,2,2-Tris-(6-fluoro-pyridin-2-yl)-N-hydroxy-acetamidine]"
14,> 10000,"COc1ccc(C(C(=N)NO)(c2ccc(OC)cc2)c2ccc(OC)cc2)cc1 [Example 31, N-Hydroxy-2,2,2-tris-(4-methoxy-phenyl)-acetamidine]"
15,> 10000,"N=C(NO)C(c1ccccc1)(c1ccc(O)cc1)c1ccc(O)cc1 [Example 32, N-Hydroxy-2,2-bis-(4-hydroxy-phenyl)-2-phenyl-acetamidine]"
16,> 10000,"CCON=C(C)C(c1ccccc1)(c1ccccc1)c1ccccc1 [Example 33, 1,1,1-Triphenyl-propan-2-one O-ethyl-oxime]"
17,> 10000,"CC(=NO)C(c1ccccc1)(c1ccccc1)c1ccccc1 [Example 34, 1,1,1-Triphenyl-propan-2-one oxime]"
